Results taken from patent US9976141B2, “Compositions and methods for inhibiting gene expression of Hif2alpha” (Arrowhead Madison Inc., priority 2015, dated 2018).
Values joined by “and” are separate entries in the source; they are usually repeats but may differ in a detail not shown here. Identical values can stand only once.

System: human (tumor) Hif2α (EPAS1) mRNA
Experiment: Hif2α knockdown in orthotopic RCC tumor bearing mice, single injection of RNAi trigger-delivery polymer conjugate, RT-qPCR (Table 7)
Format: in vivo
Settings: single tail vein injection, relative to isotonic glucose
Outline: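 A single intravenous dose of Hif2α RNAi trigger–delivery polymer conjugate, or isotonic glucose vehicle, was given to nude mice with subcapsular A498-SEAP renal tumours (about 5–6 weeks old). At the indicated time, tumour RNA was assayed by biplex TaqMan qPCR against CycA, and relative expression was calculated by ΔΔCT versus vehicle.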

[1] = RNAi trigger 50 μg, polymer 064 125 μg
[2] = RNAi trigger 80 μg, polymer 126 400 μg

Row | Substance | Relative Expression day 4 (Hif2α mRNA in kidney tumor) [1] | other results
1 | AD03265 (antisense UUUCAUGAAAUCGUUACGUUG; sense UAUACGUAACGAUUUCAUGAAAT; Hif2alpha RNAi agent antisense strand; modified_base 2,4,6,8,14 /mod_base = “2′-deoxy-2′-fluoro corresponding nucleoside”; modified_base 1,3,5,7,9,10,11,12,13,15,16,17,18,19,20,21 /mod_base = “2′-O-methyl corresponding nucleoside”; modified_base 2,3,20,21 /mod_base = “5′-phosphorothioate corresponding nucleotide”; Hif2alpha RNAi agent sense strand; modified_base 2 modified base = “2′-hydroxy corresponding nucleoside”; modified_base 10,11,12 /mod_base = “2′-deoxy-2′-fluoro corresponding nucleoside”; modified_base 1,3,4,5,6,7,8,9,13,14,15,16,17,18,19,20,21,22 /mod_base = “2′-O-methyl correspon) | 0.294 | 
2 | AD03188 (antisense AGUAAAACAAUUGUGUACUUU; sense AGUACACAAUUGUUUUACUT; Hif2alpha RNAi agent antisense strand; modified_base 2,4,6,8,10,14,16,18 /mod_base = “2′-deoxy-2′-fluoro corresponding nucleoside”; modified_base 1,3,5,7,9,11,12,13,15,17,19,20,21 /mod_base = “2′-O-methyl corresponding nucleoside”; modified_base 2,3,20,21 /mod_base = “5′-phosphorothioate corresponding nucleotide”; Hif2alpha RNAi agent sense strand; modified_base 3,5,7,8,9,11,13,17 /mod_base = “2′-deoxy-2′-fluoro corresponding nucleoside”; modified_base 1,2,4,6,10,12,14,15,16,18,19 /mod_base = “2′-O-methyl corresponding nucleoside”; modified_base 20 /mod_base = “3′-3′-linked nucleotide”; modi) | 0.308 | 
3 | AD01295 (antisense TUUCAUGAAAUCGUUACGUUGGCUAU; sense UAUAUCAACGUAACGAUUUCAUGAAA; Hif2alpha RNAi agent antisense strand; modified_base 25 modified base = “2′-hydroxy corresponding nucleoside”; modified_base 2,4,6,8,10,14,16,18,20 /mod_base = “2′-deoxy-2′-fluoro corresponding nucleoside”; modified_base 3,5,7,9,11,12,13,15,17,19,21,22,23,24,26 /mod_base = “2′-O-methyl corresponding nucleoside”; modified_base 2,3,23,24 /mod_base = “5′-phosphorothioate corresponding nucleotide”; Hif2alpha RNAi agent sense strand; modified_base 2,4 modified base = “2′-hydroxy corresponding nucleoside”; modified_base 6,8,10,12,14,15,16,18,20,22,24,26 /mod_base = “2′-deoxy-2′-fluoro correspondin) |  | Relative Expression day 4 (Hif2α mRNA in kidney tumor) [2]: 0.22
4 | AD01290 (antisense TUUCAUGAAAUCGUUACGUTT; sense ACGUAACGAUUUCAUGAAAT; Hif2alpha RNAi agent antisense strand; modified_base 2,4,6,8,10,12,14,16,18 /mod_base = “2′-deoxy-2′-fluoro corresponding nucleoside”; modified_base 3,5,7,9,11,13,15,17,19 /mod_base = “2′-O-methyl corresponding nucleoside”; modified_base 21 /mod_base = “5′-phosphorothioate corresponding nucleotide”; Hif2alpha RNAi agent sense strand; modified_base 1,3,7,9,11,13,15,17,19 /mod_base = “2′-deoxy-2′-fluoro corresponding nucleoside”; modified_base 2,4,5,6,8,10,12,14,16,18 /mod_base = “2′-O-methyl corresponding nucleoside”; modified_base 20 /mod_base = “3′-3′-linked nucleotide”; modified_base 1 /mo) |  | Relative Expression day 4 (Hif2α mRNA in kidney tumor) (RNAi trigger 115 μg, polymer 100A 375 μg): 0.39
5 | AD03258 (antisense AUUCAUGAAAUCGUUACGUUG; sense ACGUAACGAUUUCAUGAAUT; Hif2alpha RNAi agent antisense strand; modified_base 2,8,10,14 /mod_base = “2′-deoxy-2′-fluoro corresponding nucleoside”; modified_base 1,3,4,5,6,7,9,11,12,13,15,16,17,18,19,20,21 /mod_base = “2′-O-methyl corresponding nucleoside”; modified_base 2,3,20,21 /mod_base = “5′-phosphorothioate corresponding nucleotide”; Hif2alpha RNAi agent sense strand; modified_base 7,8,9 /mod_base = “2′-deoxy-2′-fluoro corresponding nucleoside”; modified_base 1,2,3,4,5,6,10,11,12,13,14,15,16,17,18,19 /mod_base = “2′-O-methyl corresponding nucleoside”; modified_base 20 /mod_base = “3′-3′-linked nucleotide”; modi) | 0.137 | 
6 | AD03257 (antisense UUUCAUGAAAUCGUUACGUUG; sense ACGUAACGAUUUCAUGAAAT; Hif2alpha RNAi agent antisense strand; modified_base 2,8,10,14 /mod_base = “2′-deoxy-2′-fluoro corresponding nucleoside”; modified_base 1,3,4,5,6,7,9,11,12,13,15,16,17,18,19,20,21 /mod_base = “2′-O-methyl corresponding nucleoside”; modified_base 2,3,20,21 /mod_base = “5′-phosphorothioate corresponding nucleotide”; Hif2alpha RNAi agent sense strand; modified_base 7,8,9 /mod_base = “2′-deoxy-2′-fluoro corresponding nucleoside”; modified_base 1,2,3,4,5,6,10,11,12,13,14,15,16,17,18,19 /mod_base = “2′-O-methyl corresponding nucleoside”; modified_base 20 /mod_base = “3′-3′-linked nucleotide”; modi) | 0.203 | 
7 | AD02695 (antisense UUUCAUGAAAUCGUUACGUUG; sense ACGUAACGAUUUCAUGAAAT; Hif2alpha RNAi agent antisense strand; modified_base 2,4,6,8,10,14,16,18 /mod_base = “2′-deoxy-2′-fluoro corresponding nucleoside”; modified_base 1,3,5,7,9,11,12,13,15,17,19,20,21 /mod_base = “2′-O-methyl corresponding nucleoside”; modified_base 2,3,20,21 /mod_base = “5′-phosphorothioate corresponding nucleotide”; Hif2alpha RNAi agent sense strand; modified_base 7,9,13 /mod_base = “2′-deoxy-2′-fluoro corresponding nucleoside”; modified_base 1,2,3,4,5,6,8,10,11,12,14,15,16,17,18,19 /mod_base = “2′-O-methyl corresponding nucleoside”; modified_base 20 /mod_base = “3′-3′-linked nucleotide”; modi) | 0.123 | Relative Expression day 4 (Hif2α mRNA in kidney tumor) (RNAi trigger 75 μg, polymer 064 187.5 μg): 0.101 and 0.155
8 | AD02862 (antisense AUUCAUGAAAUCGUUACGUUG; sense UAUACGUAACGAUUUCAUGAAUT; Hif2alpha RNAi agent antisense strand; modified_base 2,4,6,8,10,14,16,18 /mod_base = “2′-deoxy-2′-fluoro corresponding nucleoside”; modified_base 1,3,5,7,9,11,12,13,15,17,19,20,21 /mod_base = “2′-O-methyl corresponding nucleoside”; modified_base 2,3,20,21 /mod_base = “5′-phosphorothioate corresponding nucleotide”; Hif2alpha RNAi agent sense strand; modified_base 2 modified base = “2′-hydroxy corresponding nucleoside”; modified_base 6,8,10,11,12,16,18,20 /mod_base = “2′-deoxy-2′-fluoro corresponding nucleoside”; modified_base 1,3,4,5,7,9,13,14,15,17,19,21,22 /mod_base = “2′-O-methyl correspon) | 0.093 | 
9 | AD01022 (antisense TGUAAAACAAUUGUGUACUTT; sense AGUACACAAUUGUUUUACAT; Hif2alpha RNAi agent antisense strand; modified_base 2,4,6,8,10,12,14,16,18 /mod_base = “2′-deoxy-2′-fluoro corresponding nucleoside”; modified_base 3,5,7,9,11,13,15,17,19 /mod_base = “2′-O-methyl corresponding nucleoside”; modified_base 21 /mod_base = “5′-phosphorothioate corresponding nucleotide”; Hif2alpha RNAi agent sense strand; modified_base 1,3,5,7,9,11,13,15,17,19 /mod_base = “2′-deoxy-2′-fluoro corresponding nucleoside”; modified_base 2,4,6,8,10,12,14,16,18 /mod_base = “2′-O-methyl corresponding nucleoside”; modified_base 20 /mod_base = “3′-3′-linked nucleotide”; modified_base 1 /mo) |  | Relative Expression day 4 (Hif2α mRNA in kidney tumor) [2]: 0.53
